Key:
patients [1] = assay: Long-term study, placebo-controlled randomized withdrawal period from month 11 (visit 10); format: in vivo, human; details: for Mean change (SD) from Month 11 (Visit 10) in msDBP / Mean change (SD) from Month 11 (Visit 10) in msSBP: continued aliskiren monotherapy 150 or 300 mg
Protocol: Persistence of effect was examined after a long-term study in which patients were treated for approximately 1 year. Patients were randomly assigned to aliskiren at either 150 mg or 300 mg a day. Aliskiren was increased to 300 mg in those patients who had not responded to 150 mg. Starting at the end of treatment month 2 and 3, investigators adjusted individual therapy in order to achieve a goal BP of <140/90 mm Hg. Subsequent upward dose titration required that BP exceed 140/90 for two consecutive visits. No downward titration of aliskiren was permitted.
At month 11 (visit 10), patients who had been maintained on aliskiren monotherapy entered a placebo-controlled randomized withdrawal study to confirm continued efficacy. Eligible patients were stratified based on dose and randomized in a 1:1 ratio to either continue their current treatment of aliskiren monotherapy (aliskiren 150 mg or aliskiren 300 mg) or be switched to placebo in a double-blind fashion.
The potential for a rebound effect on BP with abrupt treatment withdrawal was evaluated.
Rebound was defined as a rise of >5 mm Hg for diastolic and >10 mm for systolic was used and the results are presented separately.

patients [2] = assay: Abrupt withdrawal of aliskiren after eight weeks of treatment, compared with placebo (FIG. 3); format: in vivo, human
Protocol: In another study, the potential for rebound hypertension following abrupt withdrawal of aliskiren treatment was evaluated in those patients who completed eight weeks of treatment compared to patients that were given a placebo only. The tested doses were 150, 300 and 600 mg of aliskiren.

[3] = End point: Month 11 + 28 days or last visit carried forward
[4] = Visit 11, Month 11 + 7 Days, randomized withdrawal ITT population

Rebound effect on BP with abrupt treatment withdrawal (patients [1]; rebound defined as rise of >5 mm Hg diastolic and >10 mm systolic): no sign of rebound
Rebound hypertension following abrupt withdrawal (patients [2]; after eight weeks of aliskiren 150, 300 or 600 mg, two weeks after withdrawal): no signs of rebound hypertension
Compound: COCCCOc1cc(C[C@@H](C[C@H](N)[C@@H](O)C[C@H](C(=O)NCC(C)(C)C(N)=O)C(C)C)C(C)C)ccc1OC [aliskiren, 2(S),4(S),5(S),7(S)—N-(3-amino-2,2-dimethyl-3-oxopropyl)-2,7-di(1-methylethyl)-4-hydroxy-5-amino-8-[4-methoxy-3-(3-methoxy-propoxy)phenyl]-octanamide]
Mean change (SD) from Month 11 (Visit 10) in msDBP (patients [1]; [3]): 1.2 (6.9) mm Hg
Mean change (SD) from Month 11 (Visit 10) in msSBP (patients [1]; [3]): 1.7 (10.1) mm Hg
Mean change (SD) from Month 11 (Visit 10) in msDBP (patients [1]; [4]): 0.3 (6.8) mm Hg
Mean change (SD) from Month 11 (Visit 10) in msSBP (patients [1]; [4]): 1.3 (10.3) mm Hg
Mean change (SD) from Month 11 (Visit 10) in msDBP (patients [1]; Visit 12, Month 11 + 14 Days): 0.3 (6.8) mm Hg
Mean change (SD) from Month 11 (Visit 10) in msSBP (patients [1]; Visit 12, Month 11 + 14 Days): 0.3 (10.4) mm Hg
Mean change (SD) from Month 11 (Visit 10) in msDBP (patients [1]; Visit 13, Month 11 + 21 Days): 0.4 (6.7) mm Hg
Mean change (SD) from Month 11 (Visit 10) in msSBP (patients [1]; Visit 13, Month 11 + 21 Days): 0.5 (10.6) mm Hg
Mean change (SD) from Month 11 (Visit 10) in msDBP (patients [1]; Visit 14, Month 11 + 28 Days): 1.1 (6.8) mm Hg
Mean change (SD) from Month 11 (Visit 10) in msSBP (patients [1]; Visit 14, Month 11 + 28 Days): 1.8 (10.1) mm Hg
Persistence of blood pressure lowering effect after withdrawal (patients [1]; patients switched to placebo at month 11 after aliskiren 150 or 300 mg monotherapy): a persistence of a blood pressure lowering effect was observed for several weeks after withdrawal
Patients with msDBP and msSBP values remaining below baseline (patients [2]; 4 days and 2 weeks after drug withdrawal, aliskiren 150 mg, 300 mg and 600 mg groups versus placebo group): more patients in the aliskiren 150 mg, 300 mg, and 600 mg groups had msDBP and msSBP values that remained below baseline compared with the placebo group
Persistence of the antihypertensive effect following withdrawal (patients [2]; after eight weeks of aliskiren 150, 300 or 600 mg, study period of two weeks): a good persistence of the antihypertensive effect
BP after withdrawal of study drug versus placebo group (patients [2]; aliskiren 150, 300 and 600 mg for eight weeks, throughout the drug withdrawal period): values still remained lower than those in the placebo group

From patent publication US20090062395A1, “RENIN INHIBITORS FOR THE TREATMENT OF HYPERTENSION” (priority 2006, published 2009)
